Experimental data as given in patent US9409884B2 (Rigel Pharmaceuticals, Inc., priority 2012, dated 2016).
pEC50: −log10 of the molar value.

Molecular target: AMPK
Experiment: AMPK activation, enzyme-linked immunosorbent assay
Format: biochemical
Details: Table 9, compounds of Table 2
How it was run: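 AMPK activation by test compounds was measured by enzyme-linked immunosorbent assay.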

pEC50	SMILES
> 6.30	O=C(NC1CCN(Cc2cccnc2)CC1)c1ccc2[nH]c3c(c2c1)CN(Cc1ccc(C(F)(F)F)cc1)CC3 [Compound 2-11, N-(1-(pyridin-3-ylmethyl)piperidin-4-yl)-2-(4-(trifluoromethyl)benzyl)-2,3,4,5-tetrahydro-1H-pyrido[4,3-b]indole-8-carboxamide]
> 6.30	N#Cc1ccc(CN2CCC(NC(=O)c3ccc4[nH]c5c(c4c3)CN(Cc3ccc(C(F)(F)F)cc3)CC5)CC2)cc1 [Compound 2-12, N-(1-(4-cyanobenzyl)piperidin-4-yl)-2-(4-(trifluoromethyl)benzyl)-2,3,4,5-tetrahydro-1H-pyrido[4,3-b]indole-8-carboxamide]
> 6.30	O=C(NC1CCN(Cc2ccc(C(F)(F)F)cc2)CC1)c1ccc2[nH]c3c(c2c1)CN(Cc1ccc(C(F)(F)F)cc1)CC3 [Compound 2-13, N-(1-(4-trifluoromethylbenzyl)piperidin-4-yl)-2-(4-(trifluoromethyl)benzyl)-2,3,4,5-tetrahydro-1H-pyrido[4,3-b]indole-8-carboxamide]
> 6.30	O=C(NC1CCN(CCc2ccccc2)CC1)c1ccc2[nH]c3c(c2c1)CN(Cc1ccc(C(F)(F)F)cc1)CC3 [Compound 2-14, N-(1-phenethylpiperidin-4-yl)-2-(4-(trifluoromethyl)benzyl)-2,3,4,5-tetrahydro-1H-pyrido[4,3-b]indole-8-carboxamide]
> 6.30	O=C(NC1CCN(c2ccc(F)cc2)CC1)c1ccc2[nH]c3c(c2c1)CN(Cc1ccc(C(F)(F)F)cc1)CC3 [Compound 2-15, N-(1-(4-fluorophenyl)piperidin-4-yl)-2-(4-(trifluoromethyl)benzyl)-2,3,4,5-tetrahydro-1H-pyrido[4,3-b]indole-8-carboxamide]
> 6.30	Cn1c2c(c3cc(C(=O)NC4CCN(Cc5ccc(C#N)cc5)CC4)ccc31)CN(Cc1ccc(C(F)(F)F)cc1)CC2 [Compound 2-16, N-(1-(4-cyanobenzyl)piperidin-4-yl)-5-methyl-2-(4-(trifluoromethyl)benzyl)-2,3,4,5-tetrahydro-1H-pyrido[4,3-b]indole-8-carboxamide]
6.00 to 6.30	Cn1c2c(c3cc(C(=O)NC4CCN(Cc5ccc(C(F)(F)F)cc5)CC4)ccc31)CN(Cc1ccc(C(F)(F)F)cc1)CC2 [Compound 2-17, N-(1-(4-trifluoromethylbenzyl)piperidin-4-yl)-5-methyl-2-(4-(trifluoromethyl)benzyl)-2,3,4,5-tetrahydro-1H-pyrido[4,3-b]indole-8-carboxamide]
5.30 to 6.00	Cn1c2c(c3cc(C(=O)NC4CCN(Cc5cccnc5)CC4)ccc31)CN(Cc1ccc(C(F)(F)F)cc1)CC2 [Compound 2-18, 5-methyl-N-(1-(pyridin-3-ylmethyl)piperidin-4-yl)-2-(4-(trifluoromethyl)benzyl)-2,3,4,5-tetrahydro-1H-pyrido[4,3-b]indole-8-carboxamide]
< 4.00	O=C(NC1CCN(Cc2ccccc2)CC1)c1ccc2[nH]c3c(c2c1)CN(S(=O)(=O)c1ccc(C(F)(F)F)cc1)CC3 [Compound 2-19, N-(1-benzylpiperidin-4-yl)-2-(4-(trifluoromethyl)phenylsulfonyl)-2,3,4,5-tetrahydro-1H-pyrido[4,3-b]indole-8-carboxamide]
5.30 to 6.00	CC(=O)n1c2c(c3cc(C(=O)NC4CCN(Cc5cccnc5)CC4)ccc31)CN(Cc1ccc(C(F)(F)F)cc1)CC2 [Compound 2-20, 5-acetyl-N-(1-(pyridin-3-ylmethyl)piperidin-4-yl)-2-(4-(trifluoromethyl)benzyl)-2,3,4,5-tetrahydro-1H-pyrido[4,3-b]indole-8-carboxamide]
6.00 to 6.30	N#Cc1ccc(S(=O)(=O)N2CCC(NC(=O)c3ccc4[nH]c5c(c4c3)CN(Cc3ccc(C(F)(F)F)cc3)CC5)CC2)cc1 [Compound 2-21, N-(1-(4-cyanophenylsulfonyl)piperidin-4-yl)-2-(4-(trifluoromethyl)benzyl)-2,3,4,5-tetrahydro-1H-pyrido[4,3-b]indole-8-carboxamide]
